Patent US9302999B2, “Substituted triazoles as herbicides” (E. I. DU PONT DE NEMOURS AND COMPANY, priority 2012, dated 2016)

Tests used:
Assay type in all cases: in vivo
rice (Oryza sativa) = assay: Test C flooded paddy test: rice; conditions: scale 0 to 100 (0 no effect, 100 complete control)
From the text: (§1) Plant species in the flooded paddy test consisted of rice (Oryza sativa), sedge, umbrella (small-flower umbrella sedge, Cyperus difformis), ducksalad (Heteranthera limosa) and barnyardgrass (Echinochloa crus-galli) grown to the 2-leaf stage for testing. At time of treatment, test pots were flooded to 3 cm above the soil surface, treated by application of test compounds directly to the paddy water, and then maintained at that water depth for the duration of the test.
(§2) Treated plants and controls were maintained in a greenhouse for 13 to 15 days, after which time all species were compared to controls and visually evaluated. Plant response ratings, summarized in Table C, are based on a scale of 0 to 100 where 0 is no effect and 100 is complete control. A dash (-) response means no test result.

[1] = system: pigweed (Amaranthus retroflexus); assay: Test A pre-/postemergence: pigweed; conditions: for Pigweed plant response rating: Postemergence; for Plant response rating, Pigweed: Preemergence
How it was run: (§3)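 Visual 0–100 injury ratings (0 no effect, 100 complete control) taken about ten days after treatment, relative to untreated controls. Preemergence treatment was a directed soil spray; postemergence plants were 2–10 cm tall at one- to two-leaf stage. Soil: loam/sand blend.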

[2] = system: velvetleaf (Abutilon theophrasti); assay: Test A pre-/postemergence: velvetleaf; conditions: for Velvetleaf plant response rating: Postemergence; for Plant response rating, Velvetleaf: Preemergence
How it was run: as §3

[3] = system: barnyardgrass (Echinochloa crus-galli); assay: Test C flooded paddy test: barnyardgrass; conditions: scale 0 to 100 (0 no effect, 100 complete control)
From the text: as §1, §2

[4] = system: wheat (Triticum aestivum); assay: Test A pre-/postemergence: wheat; conditions: for Wheat plant response rating: Postemergence; for Plant response rating, Wheat: Preemergence
How it was run: as §3

[5] = system: morningglory (Ipomoea spp.); assay: Test A pre-/postemergence: morningglory; conditions: for Morningglory plant response rating: Postemergence; for Plant response rating, Morningglory: Preemergence
How it was run: as §3

[6] = system: ducksalad (Heteranthera limosa); assay: Test C flooded paddy test: ducksalad; conditions: scale 0 to 100 (0 no effect, 100 complete control)
From the text: as §1, §2

[7] = system: sedge, umbrella (small-flower umbrella sedge, Cyperus difformis); assay: Test C flooded paddy test: sedge, umbrella; conditions: scale 0 to 100 (0 no effect, 100 complete control)
From the text: as §1, §2

[8] = system: barnyardgrass (Echinochloa crus-galli); assay: Test A pre-/postemergence: barnyardgrass; conditions: for Barnyardgrass plant response rating: Postemergence; for Plant response rating, Barnyardgrass: Preemergence
How it was run: as §3

[9] = system: crabgrass, large (large crabgrass, Digitaria sanguinalis); assay: Test A pre-/postemergence: crabgrass, large; conditions: for Crabgrass, Large plant response rating: Postemergence; for Plant response rating, Crabgrass, Large: Preemergence
How it was run: as §3

[10] = system: foxtail, giant (giant foxtail, Setaria faberii); assay: Test A pre-/postemergence: foxtail, giant; conditions: for Foxtail, Giant plant response rating: Postemergence; for Plant response rating, Foxtail, Giant: Preemergence
How it was run: as §3

corn (Zea mays) = assay: Test A pre-/postemergence: corn; conditions: for Corn plant response rating: Postemergence; for Plant response rating, Corn: Preemergence
How it was run: as §3

[11] = Flood (flooded paddy test), 62 g ai/ha, visual rating after 13 to 15 days
[12] = Flood (flooded paddy test), 125 g ai/ha, visual rating after 13 to 15 days
[13] = Flood (flooded paddy test), 250 g ai/ha, visual rating after 13 to 15 days
[14] = 125 g ai/ha, 0 to 100 scale, 0 is no effect, 100 is complete control
[15] = 500 g ai/ha, visual rating on 0 to 100 scale (0 no effect, 100 complete control), approximately ten days
[16] = 125 g ai/ha, 0 to 100 scale (0 no effect, 100 complete control)
[17] = 500 g ai/ha, 0 to 100 scale, 0 is no effect, 100 is complete control

Structure (SMILES): Cc1nn(-c2ccc(C(F)(F)F)cn2)nc1Cn1nc(C(F)(F)F)cc1C [Compound 21]
- Plant response rating, Rice (rice (Oryza sativa); [11]): 0
- Plant response rating, Rice (rice (Oryza sativa); [12]): 0
- Plant response rating, Rice (rice (Oryza sativa); [13]): 0
- Plant response rating, Rice (rice (Oryza sativa); Flood, 31 g ai/ha): 0
- Pigweed plant response rating [1, 14]: 60
- Pigweed plant response rating [1, 15]: 80
- Plant response rating, Pigweed [1, 16]: 0
- Plant response rating, Pigweed [1, 17]: 50
- Velvetleaf plant response rating [2, 14]: 10
- Velvetleaf plant response rating [2, 15]: 20
- Plant response rating, Velvetleaf [2, 16]: 0
- Plant response rating, Velvetleaf [2, 17]: 0
- Plant response rating, Barnyardgrass [3, 11]: 0
- Plant response rating, Barnyardgrass [3, 12]: 0
- Plant response rating, Barnyardgrass [3, 13]: 0
- Plant response rating, Barnyardgrass ([3]; Flood, 31 g ai/ha): 0
- Wheat plant response rating [4, 14]: 0
- Wheat plant response rating [4, 15]: 0
- Plant response rating, Wheat [4, 16]: 0
- Plant response rating, Wheat [4, 17]: 0
- Morningglory plant response rating [5, 14]: 20
- Morningglory plant response rating [5, 15]: 40
- Plant response rating, Morningglory [5, 16]: 0
- Plant response rating, Morningglory [5, 17]: 0
- Plant response rating, Ducksalad [6, 11]: 0
- Plant response rating, Ducksalad [6, 12]: 0
- Plant response rating, Ducksalad [6, 13]: 0
- Plant response rating, Ducksalad ([6]; Flood, 31 g ai/ha): 0
- Plant response rating, Sedge, Umbrella [7, 11]: 0
- Plant response rating, Sedge, Umbrella [7, 12]: 0
- Plant response rating, Sedge, Umbrella [7, 13]: 0
- Plant response rating, Sedge, Umbrella ([7]; Flood, 31 g ai/ha): 0
- Barnyardgrass plant response rating [8, 14]: 0
- Barnyardgrass plant response rating [8, 15]: 10
- Plant response rating, Barnyardgrass [8, 16]: 0
- Plant response rating, Barnyardgrass [8, 17]: 10
- Crabgrass, Large plant response rating [9, 14]: 20
- Crabgrass, Large plant response rating [9, 15]: 40
- Plant response rating, Crabgrass, Large [9, 16]: 0
- Plant response rating, Crabgrass, Large [9, 17]: 60
- Foxtail, Giant plant response rating [10, 14]: 0
- Foxtail, Giant plant response rating [10, 15]: 10
- Plant response rating, Foxtail, Giant [10, 16]: 0
- Plant response rating, Foxtail, Giant [10, 17]: 30
- Corn plant response rating (corn (Zea mays); [14]): 0
- Corn plant response rating (corn (Zea mays); [15]): 10
- Plant response rating, Corn (corn (Zea mays); [16]): 0
- Plant response rating, Corn (corn (Zea mays); [17]): 0

Structure (SMILES): Cc1nn(-c2ccncc2)nc1C(=O)c1cccc(C(F)(F)F)c1 [Compound 22]
- Plant response rating, Rice (rice (Oryza sativa); [11]): 0
- Plant response rating, Rice (rice (Oryza sativa); [12]): 0
- Plant response rating, Rice (rice (Oryza sativa); [13]): 0
- Plant response rating, Rice (rice (Oryza sativa); Flood, 31 g ai/ha): 0
- Pigweed plant response rating [1, 14]: 50
- Pigweed plant response rating [1, 15]: 80
- Plant response rating, Pigweed [1, 16]: 10
- Plant response rating, Pigweed [1, 17]: 10
- Velvetleaf plant response rating [2, 14]: 10
- Velvetleaf plant response rating [2, 15]: 30
- Plant response rating, Velvetleaf [2, 16]: 0
- Plant response rating, Velvetleaf [2, 17]: 0
- Plant response rating, Barnyardgrass [3, 11]: 0
- Plant response rating, Barnyardgrass [3, 12]: 0
- Plant response rating, Barnyardgrass [3, 13]: 0
- Plant response rating, Barnyardgrass ([3]; Flood, 31 g ai/ha): 0
- Wheat plant response rating [4, 14]: 10
- Plant response rating, Wheat [4, 16]: 0
- Plant response rating, Wheat [4, 17]: 0
- Morningglory plant response rating [5, 14]: 10
- Morningglory plant response rating [5, 15]: 20
- Plant response rating, Morningglory [5, 16]: 0
- Plant response rating, Morningglory [5, 17]: 0
- Plant response rating, Ducksalad [6, 11]: 0
- Plant response rating, Ducksalad [6, 12]: 0
- Plant response rating, Ducksalad [6, 13]: 0
- Plant response rating, Ducksalad ([6]; Flood, 31 g ai/ha): 0
- Plant response rating, Sedge, Umbrella [7, 11]: 0
- Plant response rating, Sedge, Umbrella [7, 12]: 0
- Plant response rating, Sedge, Umbrella [7, 13]: 0
- Plant response rating, Sedge, Umbrella ([7]; Flood, 31 g ai/ha): 0
- Barnyardgrass plant response rating [8, 14]: 10
- Barnyardgrass plant response rating [8, 15]: 20
- Plant response rating, Barnyardgrass [8, 16]: 0
- Plant response rating, Barnyardgrass [8, 17]: 10
- Crabgrass, Large plant response rating [9, 14]: 40
- Crabgrass, Large plant response rating [9, 15]: 60
- Plant response rating, Crabgrass, Large [9, 16]: 10
- Plant response rating, Crabgrass, Large [9, 17]: 40
- Foxtail, Giant plant response rating [10, 14]: 20
- Foxtail, Giant plant response rating [10, 15]: 50
- Plant response rating, Foxtail, Giant [10, 16]: 20
- Plant response rating, Foxtail, Giant [10, 17]: 80
- Corn plant response rating (corn (Zea mays); [14]): 10
- Corn plant response rating (corn (Zea mays); [15]): 20
- Plant response rating, Corn (corn (Zea mays); [16]): 0
- Plant response rating, Corn (corn (Zea mays); [17]): 0
